Experimental findings from ChEMBL document CHEMBL1201862, “PubChem BioAssay data set” (2004) are described below.

Among the test systems are OVCAR-3; CCRF-CEM; COLO 205; TK-10; K562; MOLT-4; HCC 2998; OVCAR-4; NCI-H522; NCI-H226; EKVX; Malme-3M; HCT-116; KM12; SF-295; HL-60; UACC-257; RXF 393; A498.
What all share (experiment): growth of human tumour cells (NCI), 48 h

The structures appear in SMILES notation.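 48-hour exposure; five concentrations; linearly interpolated endpoints. GI50: concentration for 50% inhibition of growth.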 The source made the active and inactive calls. Cut-off read from the data, not from the text of the source: active = GI50 up to about 1.1 µM and inactive = higher. Where only a bound is given, the exact number is not on record here.

As for `COc1cccc2ccc(C(=O)c3ccccc3)nc12`, the GI50 in the test with OVCAR-3 is > 100 µM (inactive); in the test on CCRF-CEM, 79.4 µM (inactive); in the test on COLO 205 it was > 100 µM (inactive); with TK-10, > 100 µM (inactive); with K562, > 100 µM (inactive); with MOLT-4 it was > 100 µM (inactive). For the same molecule, the GI50 in the test with HCC 2998, with OVCAR-4, in the test on NCI-H522, with NCI-H226, with EKVX and in the test on Malme-3M was > 100 µM (inactive) each time. The GI50 in the test with HCT-116, in the test on KM12 and in the test with SF-295 was > 100 µM (inactive) throughout.

For the molecule `C#C[C@@]1(O)CCCC2=CC(=O)C[C@]21C`, the GI50 in the test with OVCAR-3, in the test with CCRF-CEM, with COLO 205, in the test on TK-10, with HL-60 and in the test with K562 was > 100 µM (inactive) throughout. Also, the GI50 with MOLT-4, in the test with HCC 2998, with UACC-257, in the test with NCI-H522, in the test on NCI-H226 and in the test with EKVX was > 100 µM (inactive) each time. For the same molecule, the GI50 in the test on Malme-3M, with RXF 393, with KM12 and in the test on SF-295 was > 100 µM (inactive) throughout.

As for `COc1ccc(CC#C/C=C/C(=O)NCC(C)C)cc1`, the GI50 with OVCAR-3 was > 100 µM (inactive); with CCRF-CEM, 74.1 µM (inactive); with COLO 205 it was > 100 µM (inactive); with TK-10, > 100 µM (inactive); in the test with HL-60 it was 29.5 µM (inactive); with K562, 79.3 µM (inactive). In addition, the GI50 with MOLT-4, in the test with HCC 2998, in the test on UACC-257, in the test with OVCAR-4, in the test on NCI-H522 and in the test with NCI-H226 was > 100 µM (inactive) each time. Further, the GI50 is > 100 µM (inactive) with EKVX; > 100 µM (inactive) in the test with Malme-3M; > 100 µM (inactive) in the test on HCT-116; 40.3 µM (inactive) with RXF 393; > 100 µM (inactive) with KM12; > 100 µM (inactive) in the test on SF-295.

Regarding `COC(=O)N/N=C/c1oc(-c2ccccc2)c(-c2ccccc2)c1[N+](=O)[O-]`, the GI50 in the test with OVCAR-3, in the test on COLO 205, with TK-10, in the test with HL-60, in the test with K562 and in the test with MOLT-4 was > 100 µM (inactive) in each case. The GI50 in the test on HCC 2998, in the test on UACC-257, in the test on OVCAR-4, with NCI-H522, in the test on NCI-H226 and in the test with Malme-3M was > 100 µM (inactive) in each case. In addition, the GI50 in the test with HCT-116, in the test with RXF 393, in the test on KM12 and in the test on SF-295 was > 100 µM (inactive) in each case.

For `O=C1c2ccccc2C(=O)N1C/C=N/NS(=O)(=O)c1ccc2ccccc2c1`, the GI50 with OVCAR-3, with CCRF-CEM, with COLO 205, in the test on TK-10, in the test on A498 and in the test on HL-60 was > 100 µM (inactive) in each case. For the same molecule, the GI50 with K562, in the test with MOLT-4, in the test on HCC 2998, in the test with UACC-257, with OVCAR-4 and in the test on NCI-H522 was > 100 µM (inactive) in each case. The GI50 in the test on NCI-H226, in the test on EKVX, in the test with Malme-3M, in the test on HCT-116, in the test with KM12 and with SF-295 was > 100 µM (inactive) in each case.

Turning to `CCS/C(=N\c1ccccc1)SC`, the GI50 in the test on OVCAR-3, in the test with CCRF-CEM, in the test with COLO 205, with TK-10, in the test with HL-60 and with K562 was > 100 µM (inactive) each time. Also, the GI50 with MOLT-4, in the test on HCC 2998, with UACC-257, in the test with OVCAR-4, in the test on NCI-H522 and with NCI-H226 was > 100 µM (inactive) each time. For the same molecule, the GI50 with EKVX, in the test on Malme-3M, with HCT-116, in the test on RXF 393, in the test on KM12 and with SF-295 was > 100 µM (inactive) each time.

Turning to `O=C(NN1C(=O)C(Cl)C1c1ccc(O)cc1)c1ccccc1O` (stereo unspecified), the GI50 in the test with OVCAR-3 was 16.7 µM (inactive); in the test with CCRF-CEM, 7.11 µM (inactive); in the test with TK-10, 24.7 µM (inactive); in the test on HL-60 it was 25.2 µM (inactive); in the test on K562, 22.4 µM (inactive); with MOLT-4, 27.6 µM (inactive). Also, the GI50 in the test with UACC-257 was 20.7 µM (inactive); in the test on OVCAR-4 it was 23.7 µM (inactive); with NCI-H522, 18.1 µM (inactive); in the test on NCI-H226 it was 16 µM (inactive); in the test with Malme-3M, 18.6 µM (inactive); in the test on HCT-116, 13.7 µM (inactive). The GI50 in the test on RXF 393 is 13.1 µM (inactive); with KM12, 14 µM (inactive); in the test with SF-295, 16.6 µM (inactive).

Take `Cc1cc(C)[n+]2c(c1)C=CC2.[O-][Cl+3]([O-])([O-])[O-]`: the GI50 in the test with OVCAR-3 was 11.7 µM (inactive); in the test on COLO 205, 15 µM (inactive); with TK-10, 92 µM (inactive); in the test with HL-60, 2.94 µM (inactive); in the test on HCC 2998, > 100 µM (inactive); with UACC-257, 11.5 µM (inactive). Besides, the GI50 with OVCAR-4 is 49.9 µM (inactive); with NCI-H522, 3.21 µM (inactive); in the test with NCI-H226, 15.6 µM (inactive); in the test with EKVX, 21.6 µM (inactive); in the test on Malme-3M, 1.65 µM (inactive); in the test on RXF 393, 2.89 µM (inactive). For the same molecule, the GI50 in the test with KM12 is 27.6 µM (inactive); with SF-295, 25.1 µM (inactive).

On to `O/N=C1/C(=C/c2ccc(Oc3ccccc3)cc2)CCCC1C(NO)c1ccc(Oc2ccccc2)cc1` (stereo unspecified), for which the GI50 is 32 µM (inactive) with OVCAR-3; 12.2 µM (inactive) in the test on CCRF-CEM; 19.3 µM (inactive) in the test with COLO 205; 10.3 µM (inactive) in the test on TK-10; 8.51 µM (inactive) in the test on HL-60; 19.8 µM (inactive) in the test on K562. Moreover, the GI50 with MOLT-4 is 4.43 µM (inactive); in the test on HCC 2998 it was 32.5 µM (inactive); with UACC-257, 50.1 µM (inactive); with OVCAR-4, 29.7 µM (inactive); in the test with NCI-H226, 25.1 µM (inactive); in the test with EKVX, 81.3 µM (inactive). Moreover, the GI50 was 44.1 µM (inactive) in the test with Malme-3M; 11.5 µM (inactive) with HCT-116; 14.5 µM (inactive) in the test on RXF 393; 22.3 µM (inactive) in the test on KM12; 41.6 µM (inactive) with SF-295.

In the case of `CCCC(C)NC1=C(NC(C)=O)C(=O)c2ccccc2C1=O` (stereo unspecified), the GI50 was > 100 µM (inactive) in the test on OVCAR-3; > 100 µM (inactive) in the test on CCRF-CEM; > 100 µM (inactive) in the test on COLO 205; > 100 µM (inactive) with TK-10; 97.3 µM (inactive) with HL-60; > 100 µM (inactive) in the test on K562. Further, the GI50 is > 100 µM (inactive) with MOLT-4; > 100 µM (inactive) in the test on HCC 2998; > 100 µM (inactive) in the test on UACC-257; > 100 µM (inactive) in the test with OVCAR-4; 64.7 µM (inactive) with NCI-H522; > 100 µM (inactive) in the test on NCI-H226. For the same molecule, the GI50 is > 100 µM (inactive) with EKVX; 36.1 µM (inactive) in the test with Malme-3M; > 100 µM (inactive) with HCT-116; > 100 µM (inactive) with RXF 393; > 100 µM (inactive) in the test with KM12; > 100 µM (inactive) in the test with SF-295.

`CC1=C(CO)C(=O)O[C@@H]([C@@H](C)[C@H]2CC[C@H]3[C@@H]4C[C@H]5O[C@]56[C@@H](O)C=CC(=O)[C@]6(C)[C@H]4CC[C@]23C)C1` [WITHAFERIN A]: the GI50 with OVCAR-3 was 1.05 µM (active); in the test with CCRF-CEM, 0.113 µM (active); in the test with COLO 205 it was 0.406 µM (active); with TK-10, 0.641 µM (active); in the test on HL-60, 0.0394 µM (active); in the test with K562, 0.193 µM (active). In addition, the GI50 with MOLT-4 is 0.187 µM (active); in the test on HCC 2998, 0.509 µM (active); in the test on UACC-257, 1.59 µM (inactive); in the test with OVCAR-4, 0.566 µM (active); in the test with NCI-H522, 0.0335 µM (active); in the test with NCI-H226, 1.3 µM (inactive). For the same molecule, the GI50 was 0.243 µM (active) in the test with Malme-3M, 0.282 µM (active) in the test on HCT-116, 3.72 µM (inactive) in the test with KM12 and 4.22 µM (inactive) with SF-295.

Take `COc1cc(/C=C(\NC(=O)c2ccccc2)c2nc3c(O)nc(S)nc3[nH]2)cc(OC)c1OC`: the GI50 in the test on OVCAR-3, with CCRF-CEM, with COLO 205, with TK-10, in the test on HL-60 and in the test with K562 was > 100 µM (inactive) in each case. For the same molecule, the GI50 in the test on MOLT-4, with HCC 2998, in the test with OVCAR-4, in the test on NCI-H522, in the test with EKVX and in the test on Malme-3M was > 100 µM (inactive) each time. Moreover, the GI50 with RXF 393, in the test on KM12 and in the test with SF-295 was > 100 µM (inactive) in each case.
